PubChem BioAssay (NCI)
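96-well plates; 48 h exposure; 5 concentrations. Endpoints by linear interpolation between flanking doses. Not reached: highest tested concentration assigned. GI50 is the concentration that inhibits growth by half. The concentration for full growth arrest is given as TGI.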

Columns and labels:
Test in all cases: NCI-60 cell line screen, 48 h
NCI/ADR-RES ovarian = test system: NCI/ADR-RES ovarian
HL-60(TB) leukemia = test system: HL-60(TB) leukemia
SF-539 CNS = test system: SF-539 CNS
HOP-92 NSCLC = test system: HOP-92 NSCLC
HT29 colon = test system: HT29 colon
SK-MEL-28 melanoma = test system: SK-MEL-28 melanoma
SF-295 CNS = test system: SF-295 CNS
HOP-62 NSCLC = test system: HOP-62 NSCLC
MDA-MB-435 = test system: MDA-MB-435
SK-MEL-5 melanoma = test system: SK-MEL-5 melanoma
HCT-15 colon = test system: HCT-15 colon
NCI-H522 lung = test system: NCI-H522 lung
KM12 colon = test system: KM12 colon
MOLT-4 leukemia = test system: MOLT-4 leukemia
786-0 renal = test system: 786-0 renal
SF-268 CNS = test system: SF-268 CNS
HCC-2998 colon = test system: HCC-2998 colon
TK-10 renal = test system: TK-10 renal
HCT-116 colon = test system: HCT-116 colon
SK-OV-3 ovarian = test system: SK-OV-3 ovarian
M14 melanoma = test system: M14 melanoma
CAKI-1 renal = test system: CAKI-1 renal
OVCAR-8 ovarian = test system: OVCAR-8 ovarian
IGROV1 ovarian = test system: IGROV1 ovarian
OVCAR-4 ovarian = test system: OVCAR-4 ovarian
CCRF-CEM leukemia = test system: CCRF-CEM leukemia
U251 CNS = test system: U251 CNS
PC-3 prostate = test system: PC-3 prostate
SW-620 colon = test system: SW-620 colon
UO-31 renal = test system: UO-31 renal
OVCAR-5 ovarian = test system: OVCAR-5 ovarian
SNB-19 CNS = test system: SNB-19 CNS
UACC-257 melanoma = test system: UACC-257 melanoma
SK-MEL-2 melanoma = test system: SK-MEL-2 melanoma
SN12C renal = test system: SN12C renal
T-47D breast = test system: T-47D breast
A498 renal = test system: A498 renal
HS 578T breast = test system: HS 578T breast
DU-145 prostate = test system: DU-145 prostate
OVCAR-3 ovarian = test system: OVCAR-3 ovarian
K-562 leukemia = test system: K-562 leukemia
SNB-75 CNS = test system: SNB-75 CNS
A549 NSCLC = test system: A549 NSCLC
LOX IMVI melanoma = test system: LOX IMVI melanoma
BT-549 breast = test system: BT-549 breast
RXF 393 renal = test system: RXF 393 renal
NCI-H23 lung = test system: NCI-H23 lung
MALME-3M melanoma = test system: MALME-3M melanoma
MDA-MB-231 breast = test system: MDA-MB-231 breast
NCI-H226 lung = test system: NCI-H226 lung
MCF7 breast = test system: MCF7 breast
UACC-62 melanoma = test system: UACC-62 melanoma
RPMI-8226 leukemia = test system: RPMI-8226 leukemia
EKVX NSCLC = test system: EKVX NSCLC
COLO 205 colon = test system: COLO 205 colon

## CCCCCOC(=O)Nc1nc(=O)n(C2OC(C)C(O)C2O)cc1F (centres undefined)
NCI/ADR-RES ovarian
  GI50: > 10000 µM
  TGI: > 10000 µM
HL-60(TB) leukemia
  GI50: 5070 µM
  TGI: > 10000 µM
SF-539 CNS
  GI50: > 10000 µM
  TGI: > 10000 µM
HOP-92 NSCLC
  GI50: > 10000 µM
  TGI: > 10000 µM
HT29 colon
  GI50: > 10000 µM
  TGI: > 10000 µM
SK-MEL-28 melanoma
  GI50: > 10000 µM
  TGI: > 10000 µM
SF-295 CNS
  GI50: > 10000 µM
  TGI: > 10000 µM
HOP-62 NSCLC
  GI50: > 10000 µM
  TGI: > 10000 µM
MDA-MB-435
  GI50: > 10000 µM
  TGI: > 10000 µM
SK-MEL-5 melanoma
  GI50: 338 µM
  TGI: > 10000 µM
HCT-15 colon
  GI50: > 10000 µM
  TGI: > 10000 µM
NCI-H522 lung
  GI50: > 10000 µM
  TGI: > 10000 µM
KM12 colon
  GI50: > 10000 µM
  TGI: > 10000 µM
MOLT-4 leukemia
  GI50: > 10000 µM
  TGI: > 10000 µM
786-0 renal
  GI50: > 10000 µM
  TGI: > 10000 µM
SF-268 CNS
  GI50: > 10000 µM
  TGI: > 10000 µM
HCC-2998 colon
  GI50: 271 µM
  TGI: > 10000 µM
TK-10 renal
  GI50: > 10000 µM
  TGI: > 10000 µM
HCT-116 colon
  GI50: > 10000 µM
  TGI: > 10000 µM
SK-OV-3 ovarian
  GI50: > 10000 µM
  TGI: > 10000 µM
M14 melanoma
  GI50: > 10000 µM
  TGI: > 10000 µM
CAKI-1 renal
  GI50: > 10000 µM
  TGI: > 10000 µM
OVCAR-8 ovarian
  GI50: > 10000 µM
  TGI: > 10000 µM
IGROV1 ovarian
  TGI: > 10000 µM
OVCAR-4 ovarian
  GI50: > 10000 µM
  TGI: > 10000 µM
CCRF-CEM leukemia
  GI50: > 10000 µM
  TGI: > 10000 µM
U251 CNS
  GI50: > 10000 µM
  TGI: > 10000 µM
PC-3 prostate
  GI50: > 10000 µM
  TGI: > 10000 µM
SW-620 colon
  GI50: > 10000 µM
  TGI: > 10000 µM
UO-31 renal
  GI50: > 10000 µM
  TGI: > 10000 µM
OVCAR-5 ovarian
  GI50: > 10000 µM
  TGI: > 10000 µM
SNB-19 CNS
  GI50: > 10000 µM
  TGI: > 10000 µM
UACC-257 melanoma
  GI50: > 10000 µM
  TGI: > 10000 µM
SK-MEL-2 melanoma
  GI50: > 10000 µM
  TGI: > 10000 µM
SN12C renal
  GI50: > 10000 µM
  TGI: > 10000 µM
T-47D breast
  GI50: > 10000 µM
  TGI: > 10000 µM

## C[C@@]12CC[C@@H](O)C[C@@H]1CC[C@H]1[C@H]2CC[C@@]2(C)[C@H](c3ccc(=O)oc3)CC[C@@]12O
NCI/ADR-RES ovarian
  GI50: < 0.01 µM
  TGI: 0.0285 µM
A498 renal
  GI50: < 0.01 µM
  TGI: 0.0445 µM
HS 578T breast
  GI50: < 0.01 µM
  TGI: 0.0351 µM
SF-539 CNS
  GI50: < 0.01 µM
  TGI: 0.0137 µM
HOP-92 NSCLC
  GI50: < 0.01 µM
  TGI: 0.0571 µM
HT29 colon
  GI50: < 0.01 µM
  TGI: 0.0467 µM
SK-MEL-28 melanoma
  GI50: < 0.0141 µM
  TGI: 0.119 µM
DU-145 prostate
  GI50: < 0.01 µM
  TGI: 0.0168 µM
OVCAR-3 ovarian
  GI50: < 0.01 µM
  TGI: 0.0268 µM
SF-295 CNS
  GI50: < 0.01 µM
  TGI: 0.025 µM
HOP-62 NSCLC
  GI50: < 0.01 µM
  TGI: 0.0156 µM
K-562 leukemia
  GI50: < 0.01 µM
  TGI: 0.0309 µM
SNB-75 CNS
  GI50: < 0.01 µM
  TGI: 0.0263 µM
MDA-MB-435
  GI50: < 0.01 µM
  TGI: 0.0587 µM
SK-MEL-5 melanoma
  GI50: < 0.01 µM
  TGI: 0.0141 µM
HCT-15 colon
  GI50: < 0.01 µM
  TGI: 0.0292 µM
A549 NSCLC
  GI50: < 0.01 µM
NCI-H522 lung
  GI50: < 0.01 µM
  TGI: 0.021 µM
LOX IMVI melanoma
  GI50: < 0.01 µM
  TGI: 0.0169 µM
KM12 colon
  GI50: < 0.0123 µM
  TGI: 0.153 µM
BT-549 breast
  GI50: < 0.01 µM
  TGI: 0.0104 µM
SF-268 CNS
  GI50: < 0.01 µM
  TGI: 0.0344 µM
HCC-2998 colon
  GI50: 0.0124 µM
  TGI: 0.142 µM
TK-10 renal
  GI50: < 0.01 µM
  TGI: 0.028 µM
RXF 393 renal
  GI50: < 0.01 µM
HCT-116 colon
  GI50: < 0.01 µM
  TGI: 0.0122 µM
NCI-H23 lung
  GI50: < 0.01 µM
  TGI: 0.0226 µM
MALME-3M melanoma
  GI50: < 0.01 µM
  TGI: 0.0174 µM
SK-OV-3 ovarian
  GI50: < 0.0118 µM
  TGI: 0.0451 µM
MDA-MB-231 breast
  GI50: 0.0192 µM
  TGI: 0.116 µM
M14 melanoma
  GI50: < 0.01 µM
  TGI: 0.0564 µM
CAKI-1 renal
  GI50: < 0.01 µM
  TGI: 0.0148 µM
NCI-H226 lung
  GI50: < 0.0183 µM
  TGI: 0.0723 µM
IGROV1 ovarian
  GI50: < 0.01 µM
  TGI: 0.171 µM
OVCAR-4 ovarian
  GI50: < 0.0124 µM
  TGI: 0.0639 µM
MCF7 breast
  GI50: < 0.01 µM
  TGI: 0.0932 µM
U251 CNS
  GI50: < 0.01 µM
  TGI: 0.0363 µM
PC-3 prostate
  GI50: < 0.01 µM
  TGI: 0.0209 µM
SW-620 colon
  GI50: < 0.01 µM
  TGI: 0.018 µM
UO-31 renal
  GI50: < 0.01 µM
  TGI: 0.0147 µM
UACC-62 melanoma
  GI50: < 0.0135 µM
  TGI: 0.0435 µM
OVCAR-5 ovarian
  GI50: 0.0132 µM
  TGI: 0.0426 µM
SNB-19 CNS
  GI50: < 0.0104 µM
  TGI: 0.0755 µM
RPMI-8226 leukemia
  GI50: < 0.01 µM
EKVX NSCLC
  GI50: < 0.01 µM
  TGI: 0.0104 µM
UACC-257 melanoma
  GI50: < 0.0135 µM
  TGI: 0.0467 µM
SK-MEL-2 melanoma
  GI50: < 0.01 µM
  TGI: 0.0299 µM
SN12C renal
  GI50: < 0.01 µM
  TGI: 0.0272 µM
T-47D breast
  GI50: < 0.01 µM
  TGI: 0.0577 µM

## O=C1NC(=Nc2ccc(O)cc2)S/C1=C\c1cccs1
NCI/ADR-RES ovarian
  GI50: > 100 µM
  TGI: > 100 µM
HOP-92 NSCLC
  GI50: > 100 µM
  TGI: > 100 µM
HT29 colon
  GI50: > 100 µM
  TGI: > 100 µM
SK-MEL-28 melanoma
  GI50: > 100 µM
  TGI: > 100 µM
TK-10 renal
  GI50: > 100 µM
  TGI: > 100 µM
NCI-H23 lung
  GI50: > 100 µM
  TGI: > 100 µM
MALME-3M melanoma
  GI50: > 100 µM
  TGI: > 100 µM
SK-OV-3 ovarian
  GI50: > 100 µM
  TGI: > 100 µM
MDA-MB-231 breast
  GI50: > 100 µM
  TGI: > 100 µM
OVCAR-4 ovarian
  GI50: > 100 µM
  TGI: > 100 µM
EKVX NSCLC
  GI50: > 100 µM
  TGI: > 100 µM
UACC-257 melanoma
  GI50: > 100 µM
  TGI: > 100 µM
SK-MEL-2 melanoma
  GI50: > 100 µM
  TGI: > 100 µM
COLO 205 colon
  GI50: > 100 µM
  TGI: > 100 µM
